The values that follow come from patent US7232835B2, “3,6-Disubstituted azabicyclo derivatives as muscarinic receptor antagonists” (Ranbaxy Laboratories Limited, priority 2002, dated 2007).

Each structure is given as a SMILES string. Read-outs that look alike come from different tables or passages of the source.

The target in test [1] is T1, M3 muscarinic receptor (Rattus norvegicus, UniProt P08483).
T1 construct: Submandibular glands and heart were isolated and placed in ice cold homogenising buffer; from tissue; host or cells: rat submandibular gland membrane homogenate
T1 sequence (P08483 whole entry): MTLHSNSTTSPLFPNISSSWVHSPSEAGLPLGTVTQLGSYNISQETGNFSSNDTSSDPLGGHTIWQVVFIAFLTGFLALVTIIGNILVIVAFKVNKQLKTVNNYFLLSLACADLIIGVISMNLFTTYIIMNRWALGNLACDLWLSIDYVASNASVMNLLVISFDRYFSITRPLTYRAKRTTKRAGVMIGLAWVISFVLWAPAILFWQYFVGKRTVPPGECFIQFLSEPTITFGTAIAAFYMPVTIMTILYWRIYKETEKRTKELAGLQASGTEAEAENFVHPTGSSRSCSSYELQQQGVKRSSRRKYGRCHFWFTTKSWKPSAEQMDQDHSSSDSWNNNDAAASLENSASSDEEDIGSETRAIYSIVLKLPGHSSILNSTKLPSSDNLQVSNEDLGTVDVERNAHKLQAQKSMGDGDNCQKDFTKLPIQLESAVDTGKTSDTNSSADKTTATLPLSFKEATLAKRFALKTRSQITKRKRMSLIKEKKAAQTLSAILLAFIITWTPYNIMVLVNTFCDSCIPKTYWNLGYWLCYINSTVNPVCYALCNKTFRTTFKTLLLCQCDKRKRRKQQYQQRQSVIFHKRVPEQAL
The test can be described thus: [3H]-N-methylscopolamine radioligand binding assay, rat submandibular gland membranes. Set-up: Receptor Binding Assay Selectivity: reference not given here. As to conditions: for Ki / M3 Pki: rat submandibular gland, [3H]NMS.

Test [2] deals with T2, M2 muscarinic receptor (Rattus norvegicus, UniProt P10980).
T2 construct: Submandibular glands and heart were isolated and placed in ice cold homogenising buffer; from tissue; host or cells: rat heart membrane homogenate
T2 sequence (P10980 1-466): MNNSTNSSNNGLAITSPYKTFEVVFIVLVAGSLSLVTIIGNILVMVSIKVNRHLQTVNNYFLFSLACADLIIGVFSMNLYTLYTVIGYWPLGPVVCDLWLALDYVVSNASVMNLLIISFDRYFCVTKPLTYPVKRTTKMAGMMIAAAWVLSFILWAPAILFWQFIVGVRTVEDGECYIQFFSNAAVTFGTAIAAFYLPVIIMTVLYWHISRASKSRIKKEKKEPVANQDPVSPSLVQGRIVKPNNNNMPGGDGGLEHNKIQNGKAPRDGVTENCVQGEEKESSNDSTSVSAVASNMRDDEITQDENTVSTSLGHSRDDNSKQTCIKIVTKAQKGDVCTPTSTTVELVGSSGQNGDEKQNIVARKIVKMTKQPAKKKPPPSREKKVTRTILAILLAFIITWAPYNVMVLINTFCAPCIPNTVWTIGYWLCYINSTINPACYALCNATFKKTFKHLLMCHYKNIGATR
The test can be described thus: [3H]-N-methylscopolamine radioligand binding assay, rat heart membranes.

Test [3] has as its system isolated rat bladder. The test can be described thus: tissue or blood. The class given is cell-based.
The mark [4] stands for this setting: Table III, read-out: M3 Ki (nm).
Where [5] appears, read: Table II, rat bladder strips, antagonism of carbachol contraction, read-out: Functional Assay KB.
Where [6] appears, read: Table III, rat bladder strips, antagonism of carbachol contraction, read-out: Rat Bladder pKB (converted).
Where [7] appears, read: Table III, rat heart, [3H]NMS, read-out: M2 Ki (nm).
The mark [8] stands for this setting: Table IV, read-out: Receptor Binding Assay (pKi) M3 (converted).
[9] abbreviates: Table IV, rat heart, [3H]NMS, read-out: Receptor Binding Assay (pKi) M2 (converted).

As for `O=C(N[C@H]1[C@@H]2CN(Cc3ccccc3)C[C@@H]21)C(O)(c1ccccc1)C1CCCCC1` (stereo partly drawn) [Compound No. 22, (1α,5α,6α)-6-N-(3-azabicyclo[3.1.0]hexyl-3-benzyl)-2-cyclohexyl-2-hydroxy-2-phenyl acetamide], in test [1], the “Receptor Binding Assay Selectivity” value worked out at 24.07. Also, the Ki in test [1] (Table II, read-out: Receptor Binding Assay Ki (nM) M 3) is 94 nM; in test [1] (setting [4]), 94 nM; in test [2] (M2 Ki (nm)), 2260 nM; in test [2] (Receptor Binding Assay Ki (nM) M2), 2260 nM. The Kb in test [3] (setting [5]) is 27.5 nM; in test [3] (setting [6]) it was 26.9 nM.
In the case of `O=C(NC1C2CN(Cc3cc(F)cc(F)c3)CC21)C(O)(c1ccccc1)C1CCCCC1` (stereo not drawn) [Compound No. 23, (1α,5α,6α)-6-N-(3-azabicyclo[3.1.0]hexyl-3-(3,5-difluorobenzyl))-2-cyclohexyl-2-hydroxy-2-phenyl acetamide], the Ki in test [1] (setting [4]) is 530 nM; in test [2] (setting [7]), > 1000 nM. The Kb in test [3] (setting [6]) is 2290 nM.
Taken in the same sequence, the figures for `O=C(NC1C2CN(Cc3ccc(Br)cc3)CC21)C(O)(c1ccccc1)C1CCCCC1` (stereo not drawn) [Compound No. 24, (1α,5α,6α)-6-N-(3-azabicyclo[3.1.0]hexyl-3-(4-bromobenzyl))-2-cyclohexyl-2-hydroxy-2-phenyl acetamide] were 490 nM, > 1000 nM and 3800 nM.
Consider `O=C(NC1C2CN(CCc3ccc4c(c3)CCO4)CC21)C(O)(c1ccccc1)C1CCCCC1` (stereo not drawn) [Compound No. 28, (1α,5α,6α)-6-N-(3-azabicyclo[3.1.0]hexyl-3-(2-(2,3-dihydrobenzofuran-5-yl)ethyl))-2-cyclohexyl-2-hydroxy-2-phenyl acetamide], for which the Ki in test [1] (setting [4]) was 150 nM; in test [2] (setting [7]) it was > 1000 nM.
`O=C(NC1C2CN(CCc3ccc4c(c3)OCO4)CC21)C(O)(c1ccccc1)C1CCCCC1` (stereo not drawn) [Compound No. 29, (1α,5α,6α)-6-N-(3-azabicyclo[3.1.0]hexyl-3-(2-(3,4-methylenedioxyphenyl)ethyl))-2-cyclohexyl-2-hydroxy-2-phenyl acetamide]: the Ki was 97 nM in test [1] (setting [4]) and > 1000 nM in test [2] (setting [7]).
For `O=C(Cc1ccc2c(c1)CCO2)N1CC2C(C1)C2NC(=O)C(O)(c1ccccc1)C1CCCCC1` (stereo not drawn) [Compound No. 30, (1α,5α,6α)-6-N-(3-azabicyclo[3.1.0]hexyl-3-(1-(2,3-dihydrobenzofuran-5-yl)acetyl))-2-cyclohexyl-2-hydroxy-2-phenyl acetamide], the “M3 Pki” value in test [1] (Table III) stood at 6.08. Moreover, in test [1] (setting [4]), the Ki turned out to be 833 nM. Also, the “M2 pKi” value in test [2] (Table III, rat heart, [3H]NMS) is <5.
Take `O=C(NC1C2CN(CCc3ccc4occc4c3)CC21)C(O)(c1ccccc1)C1CCCCC1` (stereo not drawn) [Compound No. 31, (1α,5α,6α)-6-N-(3-azabicyclo[3.1.0]hexyl-3-(2-(benzofuran-5-yl)ethyl))-2-cyclohexyl-2-hydroxy-2-phenyl acetamide]: the Ki in test [1] (setting [4]) amounted to 233 nM; in test [2] (setting [7]) it was 1590 nM.
For the compound `CC(C)(C)c1ccc(C(O)(C(=O)NC2C3CN(Cc4ccccc4)CC32)C2CCCCC2)cc1` (stereo not drawn) [Compound No. 55, (1α,5α,6α)-6-N-(3-azabicyclo[3.1.0]hexyl-3-benzyl)-2-cyclohexyl-2-hydroxy-2-(4-tertbutylphenyl)acetamide], the Ki in test [1] (setting [4]) was 380 nM; in test [2] (setting [7]) it was > 1000 nM.
The matching figures for `O=C(N[C@H]1[C@@H]2CN(CCc3ccc4c(c3)CCO4)C[C@@H]21)C(O)(c1ccccc1)C1CCCC1` (stereo partly drawn) [Compound No. 68, (1α,5α,6α)-6-N-(3-azabicyclo[3.1.0]hexyl-3-(2-(2,3-dihydrobenzofuran-5-yl)ethyl))-2-cyclopentyl-2-hydroxy-2-phenyl acetamide]: 108 nM and > 1000 nM.
In the case of `Cc1cccc(N2CC3C(C2)C3NC(=O)C(O)(c2ccccc2)C2CCCC2)n1` (stereo not shown) [Compound No. 69], the “M3 Pki” value in test [1] (Table III) is 5.85. Moreover, the Ki in test [1] (setting [4]) was 1420 nM; in test [2] (setting [7]), > 10000 nM. For the same compound, the “M2 pKi” value in test [2] (Table III, rat heart, [3H]NMS) is listed as <5.
For `O=C(Cc1ccc2c(c1)CCO2)N1CC2C(C1)C2NC(=O)C(O)(c1ccccc1)C1CCCC1` (stereo not drawn) [Compound No. 70, (1α,5α,6α)-6-N-(3-azabicyclo[3.1.0]hexyl-3-(1-(2,3-dihydrobenzofuran-5-yl)acetyl))-2-cyclopentyl-2-hydroxy-2-phenyl acetamide], the “M3 Pki” value in test [1] (Table III) is 6.12. Also, the Ki in test [1] (setting [4]) was 750 nM; in test [2] (setting [7]), > 10000 nM. The “M2 pKi” value in test [2] (Table III, rat heart, [3H]NMS) was <5.
Turning to `O=C(N[C@H]1[C@@H]2CNC[C@@H]21)C(O)(c1ccccc1)C1CCCCC1` (stereo partly drawn) [Compound No. 85, (1α,5α,6α)-6-N-(3-azabicyclo[3.1.0]hexyl)-2-cyclohexyl-2-hydroxy-2-phenylacetamide], the Ki in test [1] (setting [8]) and in test [2] (setting [9]) was > 1000 nM each time.
Consider `O=C(NC1C2CNCC21)C(O)(c1ccc(F)cc1)C1CCCCC1` (stereo not drawn) [Compound No. 86, (1α,5α,6α)-6-N-(3-azabicyclo-[3.1.0]hexyl)-2-cyclohexyl-2-hydroxy-2-(4-Fluorophenyl)acetamide], for which the Ki in test [1] (setting [8]) and in test [2] (setting [9]) was > 1000 nM in each case.
Turning to `COc1ccc(C(O)(C(=O)NC2C3CNCC32)C2CCCCC2)cc1` (stereo not drawn) [Compound No. 87, (1α,5α,6α)-6-N-(3-azabicyclo-[3.1.0]hexyl)-2-cyclohexyl-2-hydroxy-2-(4-methyoxyphenyl)acetamide], the Ki in test [1] (setting [8]) and in test [2] (setting [9]) was > 1000 nM each time.
`Cc1ccc(C(O)(C(=O)N[C@H]2[C@@H]3CNC[C@@H]32)C2CCCCC2)cc1` (stereo partly drawn) [Compound No. 88, (1α,5α,6α)-6-N-(3-azabicyclo-[3.1.0]hexyl)-2-cyclohexyl-2-hydroxy-2-(4-methylphenyl)acetamide]: the Ki in test [1] (setting [8]) and in test [2] (setting [9]) was > 1000 nM throughout.
As for `O=C(NC1C2CNCC21)C(O)(c1ccccc1)C1CCCC1` (stereo not drawn) [Compound No. 89, (1α,5α,6α)-6-N-(3-azabicyclo-[3.1.0]hexyl)-2-cyclopentyl-2-hydroxy-2-phenylacetamide], the Ki in test [1] (setting [8]) and in test [2] (setting [9]) was > 1000 nM in each case.
As for `O=C(N[C@H]1[C@@H]2CNC[C@@H]21)C(O)(c1ccccc1)C1CCCCCC1` (stereo partly drawn) [Compound No. 90, (1α,5α,6α)-6-N-(3-azabicyclo[3.1.0]hexyl)-2-cycloheptyl-2-hydroxy-2-phenylacetamide], the Ki was 363 nM in test [1] (setting [8]) and > 1000 nM in test [2] (setting [9]).
Taken in the same sequence, the figures for `O=C(N[C@H]1[C@@H]2CNC[C@@H]21)C(O)(c1ccccc1)C1CCC1` (stereo partly drawn) [Compound No. 91, (1α,5α,6α)-6-N-(3-azabicyclo[3.1.0]hexyl)-2-cyclobutyl-2-hydroxy-2-phenylacetamide] were 2750 nM and 100000 nM.
Taken in the same sequence, the figures for `O=C(N[C@H]1[C@@H]2CNC[C@@H]21)C(O)(c1ccccc1)C1CC1` (stereo partly drawn) [Compound No. 92, (1α,5α,6α)-6-N-(3-azabicyclo-[3.1.0]hexyl)-2-cyclopropyl-2-hydroxy-2-phenylacetamide] were > 10000 nM and > 10000 nM.
For the compound `CC(C)(C)OC(=O)N(CCCCOC(=O)C(O)(c1ccc(F)cc1)c1ccc(F)cc1)C1C2CNCC21` (stereo not drawn) [Compound No. 95, (1α,5α,6α)-4-[6-N-(3-azabicyclo[3.1.0]hexyl)]-N-(tert-butyloxycarbonyl)butyl-1-[2-hydroxy-2,2-bis-(4-fluorophenyl)]acetate], the Ki in test [1] (setting [8]) and in test [2] (setting [9]) was > 1000 nM throughout.
Regarding `CCCOC(C(=O)OCCCCN(C(=O)OC(C)(C)C)C1C2CNCC21)(c1ccc(F)cc1)c1ccc(F)cc1` (stereo not drawn) [Compound No. 96, (1α,5α,6α)-4-[6-N-(3-azabicyclo-[3.1.0]hexyl)]-N-(tert-butyloxycarbonyl)butyl-1-[2-propyloxy-2,2-bis-(4-fluorophenyl)]acetate], the Ki in test [1] (setting [8]) and in test [2] (setting [9]) was > 1000 nM each time.
On to `O=C(N[C@H]1[C@@H]2CNC[C@@H]21)C(c1ccccc1)c1ccccc1` [Compound No. 97, (1α,5α,6α)-6N-(3-azabicyclo-[3.1.0]hexyl)-2,2-diphenyl acetamide], for which the Ki in test [1] (setting [8]) and in test [2] (setting [9]) was > 1000 nM each time.
With `COC(C(=O)NC1C2CNCC21)(c1ccccc1)C1CCCCC1` (stereo not drawn) [Compound No. 98, (1α,5α,6α)-6N-(3-azabicyclo-[3.1.0]hexyl)-2-cyclohexyl-2-methoxy-2-phenyl acetamide], the Ki in test [1] (setting [8]) and in test [2] (setting [9]) was > 1000 nM in each case.
Consider `CCN(CC)CC#CCOC(=O)C(O)(c1ccccc1)C1CCCCC1` (stereo not shown) [Oxybutynin, oxybutynin, reference compound], for which the Kb in test [3] (setting [5]) stood at 2 nM.
With `Cc1ccc(O)c([C@H](CCN(C(C)C)C(C)C)c2ccccc2)c1` [Tolterodine, tolterodine, reference compound], the Kb is 2 nM in test [3] (Rattus norvegicus, read-out: Functional Assay KB (nM)) and 1e+07 nM in test [3] (Rattus norvegicus, read-out: Rat Bladder pKB (converted)).
